pIC50: −log10 of the molar value.
Key:
human NHE3 = biological target: T1, human NHE3 (Homo sapiens, UniProt P48764); test: In vitro NHE3 inhibition activity (intracellular pH recovery, BCECF-AM, NHD C8 cells overexpressing human NHE3); type: cell-based; conditions: geometric mean of individual IC50
T1 construct: myc; expressed in transfected cells
T1 sequence (P48764 26-834): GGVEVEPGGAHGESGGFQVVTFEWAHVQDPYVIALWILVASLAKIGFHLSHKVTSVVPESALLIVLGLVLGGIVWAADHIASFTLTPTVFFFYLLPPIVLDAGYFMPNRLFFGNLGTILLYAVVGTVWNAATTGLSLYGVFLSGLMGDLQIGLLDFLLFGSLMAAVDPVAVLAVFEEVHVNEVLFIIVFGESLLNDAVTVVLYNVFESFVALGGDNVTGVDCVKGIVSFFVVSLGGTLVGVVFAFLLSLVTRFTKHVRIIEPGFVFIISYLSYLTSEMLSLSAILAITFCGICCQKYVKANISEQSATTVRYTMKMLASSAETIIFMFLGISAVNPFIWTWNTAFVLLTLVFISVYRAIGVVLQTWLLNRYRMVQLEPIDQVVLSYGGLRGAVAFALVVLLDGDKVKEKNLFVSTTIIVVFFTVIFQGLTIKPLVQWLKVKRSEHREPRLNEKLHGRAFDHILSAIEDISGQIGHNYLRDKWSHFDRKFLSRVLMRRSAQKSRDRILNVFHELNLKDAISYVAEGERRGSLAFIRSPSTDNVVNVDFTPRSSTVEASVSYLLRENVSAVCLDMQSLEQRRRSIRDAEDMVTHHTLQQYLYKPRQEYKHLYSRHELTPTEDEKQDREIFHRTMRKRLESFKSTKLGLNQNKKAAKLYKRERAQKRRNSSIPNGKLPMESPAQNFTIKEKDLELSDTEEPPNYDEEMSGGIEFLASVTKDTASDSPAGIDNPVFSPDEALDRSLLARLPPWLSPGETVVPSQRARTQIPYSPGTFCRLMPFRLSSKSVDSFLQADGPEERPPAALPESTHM
Description: In Vitro NHE3 Inhibition Activity
To create an NHE3 assay, cells selectively expressing NHE3 are generated by overexpressing human NHE3 in an endogenously NHE-deficient cell line. The NHE-deficient cell line is created by chemical-induced mutagenesis. After the mutagenesis, NHE-deficient cells are selected by subjecting lithium (Li) loaded cells to an acidic extracellular environment. Under these conditions, NHE exchanges intracellular Li^+ for extracellular protons, thus only NHE-deficient cells can avoid a toxic intracellular acidosis and survive.
An NHE-deficient cell line, NHD C8, is generated by mutagenesis and selection from the cell line Dede (ATCC® CCL-39™). The mutagenesis is induced by treating Dede CCL-39 cells with EMS (Sigma-Aldrich) in growth media at a final concentration of 500 μg/ml for 20 h. […]
To measure NHE activity, the intracellular pH of the cells is reduced by addition of NH4Cl. The sodium-dependent intracellular pH change is then measured by the intracellular pH-sensitive fluorescein dye, BCECF-AM (Molecular Probes-ThermoFisher Scientific). […] The plate is immediately read for fluorescent intensity at an excitation wavelength of 505 nm and emission wavelength of 550 nm. […]

Male Sprague-Dawley rats = test: Effect of Example 1 on sodium absorption (urinary sodium excretion after oral NaCl bolus); type: in vivo, rat; conditions: 2 h urine; for Urinary Sodium to Creatinine Ratio: mean ± SEM
Experimental: Effect of Example 1 on Sodium Absorption
Urinary sodium excretion following an oral bolus dose of sodium chloride is an indirect measure of sodium absorption in the intestine.
Male Sprague-Dawley with body weights ranging from 200 to 250 g are randomized into groups based on equal mean body weights. Henceforth the following formulation is referred to as “1% HEC”: 1% hydroxyethyl cellulose (HEC) and 0.25% Tween® 80 with antifoam vehicle in water. Example 1 at 0.1 mg/mL (final dose 1 mg/kg dosed in 10 mL/kg volume) is formulated with 1% HEC in a glass vial containing a pre-weighed amount of compound, and then probe sonicating until it appears as a uniform suspension. […] The subsequent dosing solutions of Example 1 are prepared by serial dilutions with 1% HEC. NaCl at 10 mg/ml (final dose 200 mg/kg dosed in 20 ml/kg volume) is formulated by adding sterile water.
On the day before the study, the animals are placed into clean cages without food but with access to water for an overnight fast. On the day of the study, rats are orally dosed with vehicle or varying doses of Example 1. 30 min later, animals are dosed with NaCl, then immediately transferred to metabolic cages. Urine samples are collected for 2 h. Net urine volume is recorded. Urinary sodium, and creatinine are assessed using a clinical biochemistry analyzer.
Values expressed as the ratio of urinary sodium to creatinine (mM/mM) are calculated and presented as mean±SEM. The curves are fitted with 4-parameter logistic curve fitting tool GraphPad Prism 6 to calculate the ED50. For the purpose of curve fitting, the dose of Example 1 is artificially set to 0.001 mg/kg in the software for the vehicle-alone group.

SMILES: CN1Cc2c(Cl)cc(Cl)cc2[C@H](c2cccc(S(=O)(=O)NCCOCCOCCN/C(=N\C#N)NCCCCN/C(=N/C#N)NCCOCCOCCNS(=O)(=O)c3cccc([C@@H]4CN(C)Cc5c(Cl)cc(Cl)cc54)c3)c2)C1 [Example 1, 2-Cyano-1-[4-[[N′-cyano-N-[2-[2-[2-[[3-[(4S)-6,8-dichloro-2-methyl-3,4-dihydro-1H-isoquinolin-4-yl]phenyl]sulfonylamino]ethoxy]ethoxy]ethyl]carbamimidoyl]amino]butyl]-3-[2-[2-[2-[[3-[(4S)-6,8-dichloro-2-methyl-3,4-dihydro-1H-isoquinolin-4-yl]phenyl]sulfonylamino]ethoxy]ethoxy]ethyl]guanidine]
- pIC50 (human NHE3): 7.42
- ED50 (Male Sprague-Dawley rats; Rattus norvegicus, oral, NaCl bolus 200 mg/kg): 0.058 mg/kg
- Urinary Sodium to Creatinine Ratio (Male Sprague-Dawley rats; oral 0.03 mg/kg): 1.19 ± 0.19 mM/mM
- Urinary Sodium to Creatinine Ratio (Male Sprague-Dawley rats; oral 0.1 mg/kg): 0.80 ± 0.23 mM/mM
- Urinary Sodium to Creatinine Ratio (Male Sprague-Dawley rats; oral 0.3 mg/kg): 0.37 ± 0.06 mM/mM
- Urinary Sodium to Creatinine Ratio (Male Sprague-Dawley rats; oral 1.0 mg/kg): 0.63 ± 0.23 mM/mM

From patent publication US12428377B2, “Sodium-hydrogen exchanger 3 inhibitor compounds” (Eli Lilly and Company, priority 2019, dated 2025)
